According to PubChem BioAssay (NCI):
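Each compound was tested at five concentrations against cells in 96-well plates for 48 hours. TGI marks complete inhibition of growth.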 Where a SMILES comes first, the peptide text is derived from it. [ ]: non-standard residue; d: D form. The star is where a group is joined. Phe(4-NO2) = N[CH](Cc1ccc([N+](=O)[O-])cc1)C(=O)O; Boc = CC(C)(C)OC(=O)*

Assays:
Experiment in all cases: growth of human tumour cells (NCI), 48 h
CCRF-CEM leukemia = test system: CCRF-CEM leukemia
HCC-2998 colon = test system: HCC-2998 colon
LOX IMVI melanoma = test system: LOX IMVI melanoma
MOLT-4 leukemia = test system: MOLT-4 leukemia
RPMI-8226 leukemia = test system: RPMI-8226 leukemia
SF-268 CNS = test system: SF-268 CNS
SK-OV-3 ovarian = test system: SK-OV-3 ovarian
HOP-92 NSCLC = test system: HOP-92 NSCLC
NCI-H460 lung = test system: NCI-H460 lung
SK-MEL-28 melanoma = test system: SK-MEL-28 melanoma

Structure (SMILES)	TGI (CCRF-CEM leukemia)	TGI (HCC-2998 colon)	TGI (LOX IMVI melanoma)	TGI (MOLT-4 leukemia)	TGI (RPMI-8226 leukemia)	TGI (SF-268 CNS)	TGI (SK-OV-3 ovarian)	TGI (HOP-92 NSCLC)	TGI (NCI-H460 lung)	TGI (SK-MEL-28 melanoma)
O=C(NNC(=S)NC1CCCCC1)c1csc(NC(=S)NC2CCCCC2)n1	> 100 µM	14.5 µM	18.9 µM	25.5 µM	46.7 µM	26.3 µM	28.6 µM	–	–	–
COc1cc(/C=C/C(=O)C2(C(=O)/C=C/c3cc(OC)c(OC)c(OC)c3)CCCCC2)cc(OC)c1OC	> 100 µM	> 100 µM	> 100 µM	–	> 100 µM	> 100 µM	> 100 µM	68 µM	> 100 µM	> 100 µM
COc1ccc(C(=O)/C=C/c2cc(O)c(O)c(F)c2F)c(OC)c1	32.9 µM	16.8 µM	> 100 µM	–	40.8 µM	> 100 µM	98.1 µM	> 100 µM	22.8 µM	> 100 µM
COc1cc(CNNC(N)=S)cc(OC)c1OC	> 100 µM	> 100 µM	> 100 µM	> 100 µM	> 100 µM	> 100 µM	–	> 100 µM	> 100 µM	> 100 µM
CC(=O)OCC1OC(n2c(-c3ccc(C)cc3)cc(-c3ccccc3)c(C#N)c2=S)C(OC(C)=O)C(OC(C)=O)C1OC(C)=O (centres undefined)	–	> 100 µM	> 100 µM	> 100 µM	> 100 µM	> 100 µM	> 100 µM	> 100 µM	> 100 µM	> 100 µM
COc1cc(/C=c2\sc3n(c2=O)C(c2ccc(Cl)cc2)C2=C(CCCC2C)N=3)cc(OC)c1OC (centres undefined)	> 100 µM	–	> 100 µM	> 100 µM	> 100 µM	> 100 µM	> 100 µM	> 100 µM	–	> 100 µM
O=C(NCCCCCCNC(=O)c1cc(-c2ccccc2)nc2ccccc12)c1cc(-c2ccccc2)nc2ccccc12	> 100 µM	–	> 100 µM	> 100 µM	> 100 µM	> 100 µM	> 100 µM	> 100 µM	> 100 µM	> 100 µM
Cc1nc2c(=O)n(C)ncc2[nH]1	> 100 µM	–	–	> 100 µM	> 100 µM	> 100 µM	–	–	> 100 µM	> 100 µM
Cc1ccc(S(=O)(=O)NNCNC(=O)c2ccccc2)cc1	63.2 µM	> 100 µM	> 100 µM	> 100 µM	> 100 µM	> 100 µM	> 100 µM	> 100 µM	–	> 100 µM
CCC(C#N)NCc1cccc(CNC(C#N)CC)c1 (centres undefined)	> 100 µM	> 100 µM	> 100 µM	> 100 µM	–	> 100 µM	32.3 µM	> 100 µM	> 100 µM	> 100 µM
NC(=S)N/N=C\c1nccc2ccccc12	–	> 68.4 µM	11.8 µM	0.827 µM	4.72 µM	1.47 µM	0.681 µM	4.56 µM	25.5 µM	0.951 µM
COc1ccc(SCc2cc(OCc3ccccc3)c(OCc3ccccc3)c(OCc3ccccc3)c2)cc1	3.49 µM	2.85 µM	2.91 µM	3.3 µM	–	3.42 µM	3.18 µM	3.08 µM	–	3.52 µM
CC1(C)C2C=CC1C(=O)CC2 (centres undefined)	> 100 µM	> 100 µM	> 100 µM	> 100 µM	> 100 µM	> 100 µM	–	> 100 µM	> 100 µM	> 100 µM
Cc1ccc2c(c1)-c1nc(N)c(C#N)c(-c3ccccc3)c1CCS2(=O)=O	–	> 100 µM	> 100 µM	–	> 100 µM	> 100 µM	–	80.3 µM	> 100 µM	> 100 µM
C=C1C2C[C@@H]3O[C@H]4C[C@H]5O[C@@]6(C[C@@H]7O[C@]8(C[C@H](C)[C@@H]9O[C@@H]%10CC(CO)O[C@@H]%10C[C@@H]9O8)C[C@H](C)[C@@H]7O6)C[C@H]5O[C@H]4[C@H](C)[C@H]3OC(=O)C[C@H]3CC[C@@H]4OC5[C@H]6O[C@]7(CC[C@H]8CC(=C)[C@H](CC[C@@H](C[C@H]1C)O2)O8)CC6O[C@@H]5[C@@H](O7)[C@H]4O3 (some centres undefined)	> 1 µM	–	> 0.433 µM	> 1 µM	> 1 µM	> 0.874 µM	> 1 µM	> 1 µM	–	–
CC(C)/C(Cl)=N\OC(=O)Nc1cccc(Cl)c1	5.05 µM	31.7 µM	8.71 µM	7.88 µM	25 µM	47.2 µM	> 58.2 µM	–	18.6 µM	35.4 µM
CO/N=C(\C)CCC#Cc1ccccc1C(=O)OC	> 10 µM	> 10 µM	> 10 µM	> 10 µM	> 10 µM	> 10 µM	> 10 µM	–	> 10 µM	> 10 µM
CNC(=O)CCC(NC(=O)OC(C)(C)C)C(=O)NC(Cc1ccc([N+](=O)[O-])cc1)C(=O)NCC(=O)NC (centres undefined) (Boc-Glu(NHMe)-[Phe(4-NO2)]-Gly-NHMe; configuration not given here)	–	> 100 µM	> 100 µM	> 100 µM	> 100 µM	> 100 µM	> 100 µM	> 100 µM	> 100 µM	> 100 µM
C=C1CCC([N+](=O)[O-])[C@](C)(N=O)CC[C@@H]2C1CC2(C)C (some centres undefined)	> 100 µM	–	41.7 µM	> 100 µM	> 100 µM	> 100 µM	> 100 µM	44.9 µM	39.6 µM	–
CCN(CC)C(=O)C(C)n1cc(C)c(=O)[nH]c1=O (centres undefined)	> 100 µM	> 100 µM	> 100 µM	> 100 µM	> 100 µM	> 100 µM	–	–	> 100 µM	> 100 µM
CC(C)NC(=O)CN1CCN(c2c(O)c3c(c(O)c2Cl)C(=O)C=CC3=O)CC1	–	10 µM	1.92 µM	–	7.27 µM	4.04 µM	24.3 µM	4.16 µM	22.1 µM	3.17 µM
C=CC(Cl)(CBr)CCC(Br)C(C)(C)Cl (centres undefined)	29 µM	28.8 µM	–	21.1 µM	29.5 µM	48.4 µM	> 100 µM	39.8 µM	28 µM	33.1 µM
